Measured values published in the supplement of paper PMC5908809.

Legend:
[1] = test system: normal primary NK cells, pool 2 (3 donors) (IL-2 2.5 ng/mL); test: percent inhibition of viability; higher = more inhibition; conditions: 72 h
[2] = test system: normal primary NK cells, pool 1 (3 donors) (IL-2 2.5 ng/mL); test: as above; conditions: 72 h
[3] = test system: DERL-7 (IL-2 2.5 ng/mL); test: as above; conditions: 72 h
[4] = test system: normal primary NK cells, pool 3 (3 donors) (IL-2 2.5 ng/mL); test: as above; conditions: 72 h
[5] = test system: normal primary NK cells, pool 1 (3 donors), resting (IL-2 0 ng/mL); test: as above; conditions: 72 h
[6] = test system: NK-92 (IL-2 2.5 ng/mL); test: as above; conditions: 72 h
[7] = test system: SNK-6 (IL-2 2.5 ng/mL); test: as above; conditions: 72 h
[8] = test system: NKL (IL-2 2.5 ng/mL); test: as above; conditions: 72 h
[9] = test system: KAI3 (IL-2 2.5 ng/mL); test: as above; conditions: 72 h
[10] = test system: KHYG-1 (IL-2 2.5 ng/mL); test: as above; conditions: 72 h
[11] = test system: YT (IL-2 2.5 ng/mL); test: as above; conditions: 72 h
[12] = test system: IMC-1 (IL-2 20 ng/mL); test: as above; conditions: 72 h
[13] = test system: NK-YS (IL-2 2.5 ng/mL); test: as above; conditions: 72 h
[14] = test system: normal NK cells expanded with K562-aAPC; test: drug sensitivity score (DSS) (DSS units); higher = more sensitive; extreme values may be limits of the assay; conditions: 72 h; IL-2 2.5 ng/mL
Experimental: (§1)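 Drug sensitivity and resistance testing on K562-aAPC-expanded normal NK cells: 5 concentrations (10-fold steps over a 10,000-fold range), 72 h at 37 °C, viability by CellTiter-Glo normalised to DMSO and benzethonium chloride controls; DSS from the fitted curve.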

[15] = test system: normal primary NK cells, pool 2 (3 donors) (IL-2 2.5 ng/mL); test: as above; conditions: 72 h
[16] = test system: normal primary NK cells, pool 1 (3 donors) (IL-2 2.5 ng/mL); test: as above; conditions: 72 h
[17] = test system: DERL-7 (IL-2 2.5 ng/mL); test: as above; conditions: 72 h
[18] = test system: normal primary NK cells, pool 3 (3 donors) (IL-2 2.5 ng/mL); test: as above; conditions: 72 h
[19] = test system: normal primary NK cells, pool 1 (3 donors), resting (IL-2 0 ng/mL); test: as above; conditions: 72 h
[20] = test system: NK-92 (IL-2 2.5 ng/mL); test: as above; conditions: 72 h
[21] = test system: SNK-6 (IL-2 2.5 ng/mL); test: as above; conditions: 72 h
[22] = test system: NKL (IL-2 2.5 ng/mL); test: as above; conditions: 72 h
[23] = test system: KAI3 (IL-2 2.5 ng/mL); test: as above; conditions: 72 h
[24] = test system: KHYG-1 (IL-2 2.5 ng/mL); test: as above; conditions: 72 h
[25] = test system: YT (IL-2 2.5 ng/mL); test: as above; conditions: 72 h
[26] = test system: IMC-1 (IL-2 20 ng/mL); test: as above; conditions: 72 h
[27] = test system: NK-YS (IL-2 2.5 ng/mL); test: as above; conditions: 72 h
[28] = test system: normal NK cells expanded with K562-aAPC; test: percent inhibition of viability; higher = more inhibition; conditions: 72 h, IL-2 2.5 ng/mL
Experimental: as §1

CN(C)c1cc2c(cc1Sc1nc3c(N)nccc3n1CCNCC(C)(C)C)OCO2 [CUDC-305] (max concentration tested 10000 nM)
percent inhibition of viability [%]
Conditions | 1 nM | 10 nM | 100 nM | 1000 nM | 10000 nM
[1] | -9.1 | 7.74 | 23 | 77.7 | 86.7
[2] | 3.05 | 11.3 | 19.7 | 84.3 | 92.8
[3] | -1.72 | -0.9 | 22.4 | 101 | 101
[4] | -11.7 | 2.98 | 12 | 77.3 | 88.5
[5] | -0.67 | 17.6 | 27.6 | 43.1 | 69.2
[6] | -12 | -2.97 | 13.8 | 103 | 107
[7] | -24.7 | -25.3 | -1.59 | 89.5 | 89.3
[8] | -12.3 | -13.6 | 3.23 | 97.1 | 95.2
[9] | -0.9 | -0.19 | 41.5 | 108 | 108
[10] | -1.89 | -3.69 | 6.61 | 107 | 111
[11] | -8.17 | -8.94 | 5.06 | 96.3 | 102
[12] | -5.61 | -0.06 | 1.88 | 100 | 101
[13] | -4.26 | -6.26 | 23.7 | 108 | 109
[28] | -9.36 | -5.57 | 18.3 | 98.9 | 99.5

Conditions | drug sensitivity score
[14] | 20.9
[15] | 17
[16] | 17.8
[17] | 21.5
[18] | 15.8
[19] | 12.7
[20] | 20.4
[21] | 16
[22] | 17.9
[23] | 23.5
[24] | 19.4
[25] | 18.2
[26] | 18.2
[27] | 21.7

Cc1ccc2nc(CN(CCN(Cc3nc4ccc(C)cc4[nH]3)Cc3nc4ccc(C)cc4[nH]3)Cc3nc4ccc(C)cc4[nH]3)[nH]c2c1 (max concentration tested 50000 nM)
percent inhibition of viability [%]
Conditions | 5 nM | 50 nM | 500 nM | 5000 nM | 50000 nM
[1] | -1.51 | 3.91 | 12.8 | 12.1 | 37.9
[2] | -9.49 | 4.67 | 4.72 | 25.6 | 101
[3] | 2.65 | -5.22 | 4.05 | 22 | 101
[4] | -5.58 | -1.41 | 10.2 | 5.2 | 32.2
[5] | -25.9 | 1.32 | 12.4 | 24.8 | 99.8
[6] | -27.1 | -13.1 | 15.2 | 54.5 | 110
[7] | -21 | -28.4 | -6.29 | -12.1 | 101
[8] | 2.31 | -9.86 | 19.8 | 69.1 | 107
[9] | -0.45 | -7.54 | 8.33 | 62.9 | 110
[10] | -9.01 | -6.49 | -6.15 | 36.3 | 108
[11] | -8.1 | -15.1 | -6.51 | 29.4 | 108
[12] | -6.83 | -3.4 | -4.29 | 10.4 | 51.3
[13] | -2.1 | -1.56 | 2.07 | 18.1 | 107
[28] | -4.88 | -8.25 | -3.73 | 17.5 | 100

Conditions | drug sensitivity score
[14] | 8.41
[15] | 3.42
[16] | 9.43
[17] | 9.01
[18] | 2.31
[19] | 9.11
[20] | 12.5
[21] | 4.89
[22] | 15.5
[23] | 13.3
[24] | 10.5
[25] | 9.85
[26] | 4.41
[27] | 8.57

COc1cc2c(Nc3ccc(Cl)c(Cl)c3F)ncnc2cc1OC[C@@H]1C[C@@H]2CN(C)C[C@@H]2C1 [XL-647] (max concentration tested 1000 nM)
percent inhibition of viability [%]
Conditions | 0.1 nM | 1 nM | 10 nM | 100 nM | 1000 nM
[1] | -4.62 | 6.47 | 1.95 | -3.8 | 39.6
[2] | 0.18 | 15.8 | 5.17 | 13.4 | 36.7
[3] | 2.38 | 4.2 | 2.43 | 5.16 | 49.9
[4] | -9.94 | 18.6 | 6.02 | -4.74 | 21.1
[5] | -0.45 | 21.2 | 8.11 | 17.6 | 64.4
[6] | 2.48 | -1.64 | 0.32 | 10.1 | 56.2
[7] | 17.2 | -16.8 | -17.2 | -22.1 | 3.73
[8] | -12.1 | -2.96 | 0.78 | 18.2 | 55.1
[9] | -2.77 | -5.01 | 0.66 | 13.1 | 44
[10] | -6.79 | -7.9 | -4.38 | -1 | 19.7
[11] | -6.35 | -3.87 | -2.73 | 5.21 | 28.1
[12] | -7 | -0.32 | 0.43 | -6.58 | 6.29
[13] | -8.01 | -7.74 | -6.62 | 1.82 | 42.2
[28] | -7 | -6.81 | -2.66 | 7.59 | 37.1

Conditions | drug sensitivity score
[14] | 3.02
[15] | 1.68
[16] | 3.29
[17] | 3.48
[18] | 0.47
[19] | 5.88
[20] | 4.71
[21] | 0
[22] | 5.6
[23] | 4.2
[24] | 0.5
[25] | 1.99
[26] | 0
[27] | 2.37

O=C(Nc1ccncc1)C(=O)c1cn(Cc2ccc(Cl)cc2)c2ccccc12 [Indibulin] (max concentration tested 10000 nM)
percent inhibition of viability [%]
Conditions | 1 nM | 10 nM | 100 nM | 1000 nM | 10000 nM
[1] | -0.63 | -6.55 | 0.37 | 1.94 | 2.69
[2] | -10.2 | -6.02 | -8.45 | -10.4 | -3.72
[3] | 0.04 | 6.67 | 4.75 | 46.8 | 89.2
[4] | -1.93 | -8.2 | 1.19 | 5.32 | 11.4
[5] | -7.61 | -0.32 | 20.6 | 8.83 | 10.7
[6] | -6.37 | 25.8 | 53.4 | 90.8 | 88.7
[7] | 23.1 | 63.2 | 78.4 | 84 | 80.9
[8] | -12.2 | -11.9 | 51.8 | 86.5 | 83.6
[9] | 3.69 | 14.7 | 33 | 55.2 | 49.6
[10] | -4.72 | 2.71 | 48.2 | 102 | 96
[11] | -4.48 | 2.55 | 34.7 | 90.4 | 92
[12] | -3.14 | 0.7 | 4.01 | 92.4 | 98.2
[13] | -6.38 | 5.31 | 41.8 | 72.1 | 62.7
[28] | 0.45 | -0.15 | 0.03 | 26.6 | 49.8

Conditions | drug sensitivity score
[14] | 5.97
[15] | 0
[16] | 0
[17] | 10.5
[18] | 0.07
[19] | 0.77
[20] | 24.3
[21] | 35
[22] | 21.9
[23] | 14.6
[24] | 24
[25] | 20.8
[26] | 17.3
[27] | 18.2

CC(C)Oc1ccc(C(=O)N[C@H](CNC(=O)CN(C)C)Cc2ccc(-c3cn4cccc([C@H](C)O)c4n3)cc2)cc1Cl (max concentration tested 10000 nM)
percent inhibition of viability [%]
Conditions | 1 nM | 10 nM | 100 nM | 1000 nM | 10000 nM
[1] | -5.03 | 7.38 | 7.4 | 6.97 | 31
[2] | -2.11 | -10.1 | 1.46 | -2.94 | 28.1
[3] | 3.17 | 0.65 | 70.1 | 99.2 | 98.2
[4] | -8.24 | -2.71 | 16.4 | 4.47 | 33.7
[5] | -16.4 | -27 | -21.3 | -33.1 | 54.9
[6] | 0.16 | 3.89 | 18.2 | 96.7 | 106
[7] | 1.52 | 24 | 74.4 | 84.6 | 89.7
[8] | 2.24 | 7.12 | 66.4 | 93.5 | 91.1
[9] | -6.47 | -5.43 | 37.5 | 53.3 | 103
[10] | -0.23 | 3.89 | 37.2 | 105 | 106
[11] | 1.62 | 7.48 | 76.3 | 101 | 104
[12] | -5.65 | 4.24 | 8.53 | 95.8 | 99.2
[13] | -1.16 | 1.87 | 67.4 | 78.2 | 89.7
[28] | 5.14 | 3.61 | 10.7 | 62 | 88.4

Conditions | drug sensitivity score
[14] | 13.2
[15] | 2.26
[16] | 0.98
[17] | 25.9
[18] | 2.31
[19] | 1.92
[20] | 20.2
[21] | 27.8
[22] | 25.3
[23] | 15.1
[24] | 23.1
[25] | 27.8
[26] | 18.9
[27] | 24.4
